US20120148604A1, “TRP INHIBITORS AND USES THEREOF” (TRANSPOSAGEN BIOPHARMACEUTICALS, INC., priority 2009, published 2012)
Entries after “also recorded” stand apart in the source; their conditions may differ. Where two headings read alike, the source gives them in different places.

Key:
[1] = tested on: TRPC4; conditions: HEK cells, cited from earlier work
[2] = STZ induced diabetes, von Frey filament mechanical pain threshold; type: in vivo, rat; conditions: STZ treated diabetic control rats vs non-treated control rats
Description: Von Frey Filament Test (Chang model): The effect of compounds on mechanical allodynia can be determined by the von Frey filament test in rats with a tight ligation of the L-5 spinal nerve: a model of painful peripheral neuropathy. The surgical procedure is performed as described by Kim et al., Pain 50: 355-363 (1992). A calibrated series of von Frey filaments are used to assess mechanical allodynia (Chaplan et al., J. Neurosci. Methods 53: 55-63 (1994)). Filaments of increasing stiffness are applied perpendicular to the midplantar surface in the sciatic nerve distribution of the left hindpaw. The filaments are slowly depressed until bending occurred and are then held for 4-6 seconds. Flinching and licking of the paw and paw withdrawal on the ligated side are considered positive responses.
Since many patients with diabetes mellitus also suffer from hyperalgesia-derived neuropathic pain, the Trpc4(−/−) rats were studied for this indication. Groups of control and Trpc4 knockout rats were treated with streptozotocin (STZ) in order to induce diabetes. Rats were defined to be in a diabetic state if hyperglycemia and glucosuria occurred. The mechanical induced von Frey filament method was again used to establish altered pain response. When STZ non-treated control rats were compared to STZ diabetic control rats the pain response to mechanical induction was very drastic. […]

[3] = Paclitaxel induced cold allodynia, acetone cold response; type: in vivo, rat
Description: Cancer patients who are treated with chemotherapy drugs such as paclitaxel often display sensory abnormalities and symptoms of neuropathic pain such as sudden unexplainable pain attacks. In order to study the effects of cation channels on paclitaxel induced pain, Trpc4−/− rats were treated with the anti-cancer drug. Since one of the major symptoms of patients who are treated with paclitaxel is cold allodynia, control and Trpc4−/− rats were exposed to paclitaxel and tested for acetone cold response. Previously control non-paclitaxel treated and paclitaxel treated WT rats were studied for differences in cold allodynia. Based on established cold score calculations the non-treated rats scored an average of 8 while the paclitaxel treated WT rats scored an average of 15. […] When control and Trpc4−/− treated rats were compared the difference in pain sensitivity was dramatic. […] The reversion to nearly wild type cold allodynia score was remarkable in Trpc4 knockout rats.

[4] = tested on: TRPC4; conditions: dominant negative N-term fragment; cited from earlier work

**Q.** For `Cl.NCCCCCCNS(=O)(=O)c1cccc2c(Cl)cccc12` [W-7, N-(6-Aminohexyl)-5-chloro-1-naphthalenesulfonamide hydrochloride], which “effect on TRPC4 current” value ([1]; hydrochloride) is on record?
**A.** The value was “significantly decreases TRPC4 current; also recorded: inhibited”.

**Q.** Which “decrease of threshold for pain” value [2] does the source give for `CN(N=O)C(=O)N[C@H]1C(O)O[C@H](CO)[C@@H](O)[C@@H]1O` (mixture of isomers) [STZ, streptozotocin] here?
**A.** Its value is 40%.

**Q.** For `Clc1ccc(C(c2ccc(Cl)cc2)n2cc[n+](CC(OCc3ccc(Cl)cc3Cl)c3ccc(Cl)cc3Cl)c2)cc1` (stereo not drawn) [calmidazolium], which “effect on TRPC4 current” value [1] is on record?
**A.** Its value is “not inhibited”.

**Q.** And the “effect on TRPC4 current” value ([1]; listed as CMZ)?
**A.** Its value is “unable to inhibit TRPC4 current”.

**Q.** Which results are given for `CC(=O)O[C@H]1C(=O)[C@@]2(C)[C@H]([C@H](OC(=O)c3ccccc3)[C@]3(O)C[C@H](OC(=O)[C@H](O)[C@@H](NC(=O)c4ccccc4)c4ccccc4)C(C)=C1C3(C)C)[C@]1(OC(C)=O)CO[C@@H]1C[C@@H]2O` [paclitaxel]?
**A.** cold score ([3]; paclitaxel treated Trpc4 knockout rats): 9; cold score (average) ([3]; paclitaxel treated WT rats, non-treated rats scored 8): 15

**Q.** For `C=O` [Formalin], which “duration of nociceptive activity (rubbing face and flipping the head)” value (Formalin 1.5% 50 μl sc upper lip) is on record?
**A.** Its value is 25 to 30 min.

**Q.** What about the “start of the activity” value (wild type rats, Formalin 1.5% 50 μl sc) of the same molecule?
**A.** Its value is 10 to 12 s.

B1: first ankyrin domain: dominant negative N-term fragment of TRPC4, residues 61-121 (rat and mouse sequence in b219) (protein, UniProt Q9QUQ5 61-121, looked up, fragment)
chain: ININCIDPLGRTALLIAIENENLELIELLLSFNVYVGDALLHAIRKEVVGAVELLLNHKKP
**Q.** For B1, which “suppression of TRPC4 currents” value [4] is on record?
**A.** Its value is “successfully suppress TRPC4 currents”.
